Read-outs that look alike come from different tables or passages of the source. Where a SMILES comes first, the peptide text is derived from it. [ ]: non-standard residue; d: D form. Tyr(3-I) = N[C@@H](Cc1ccc(O)c(I)c1)C(=O)O

Data set [1] has as its system atheromatous plaques. Kind of data set: Aortic binding, ex vivo autoradiography, euthanasia after 180 minutes. The format is in vivo, rabbit. The following applies: 180 minutes after injection. The procedure:
(§1) Samples of blood were taken 1, 2, 5, 10, 15, 20, 25 and 30 minutes after injection of the tracers. The animals were euthanased 30 minutes (examples 2, 3 and 4) or 180 minutes (examples 5 and 6) after injection of the labelled VCAM-1 ligands. Samples of the principal organs were taken. These samples, as well as the blood samples taken, were counted for the radioactivity which they contain. The dorsal aorta, the aortic arch and the ventral aorta were also sampled and immediately placed in 10% formalin. A portion of ventral aorta was placed for 24 hours in 3.7% formaldehyde for subsequent inclusion in paraffin and verification by immunohistology of the presence of VCAM-1.
The dorsal and ventral aortas were placed in contact with a high-resolution phosphorus screen (Fujifilm 08SR2025) in darkness for 18 hours. The screen was then scanned (phosphoimager Fujifilm BAS 5000) and the images of the distribution of the labelled VCAM-1 ligands on the aortas of healthy or hyperlipidemic animals were quantified with the aid of the Scion Image Beta software available on the National Institute of Health internet site. […]
The tracers ^123I-B2702.84-75 and ^99mTc-B2702.84-75 were evaluated according to the same methodology as was used for Examples 3 and 4, except that the animals were euthanased 180 minutes (30 minutes previously) after the injection of the tracers. […]

The nature of data set [2]: Blood kinetics up to 180 minutes after injection. Format: in vivo, rabbit. The following applies: 180 minutes after the injection. On the procedure: (§2) The tracers ^123I-B2702.84-75 and ^99mTc-B2702.84-75 were evaluated according to the same methodology as was used for Examples 3 and 4, except that the animals were euthanased 180 minutes (30 minutes previously) after the injection of the tracers.
The blood samples for measuring the circulatory tracer activity were taken 1, 2, 5, 10, 20, 25, 30, 60, 120 and 180 minutes after the injection. 180 minutes after the injection, the circulatory activity of ^123I-B2702.84-75 and ^99mTc-B2702.84-75 represents respectively 30% and 15% of the initial activity. It will be recalled that the circulatory activity of ^125I-B2702.84-75 represented approximately 40% of the initial activity 30 minutes after the injection in the experiments described in Example 3.

A short description of data set [3]: Biodistribution 180 minutes after the injection. The format is in vivo. The following applies: rabbit, iv, total radioactivity. The procedure: as §1, §2
The binding values are expressed as a percentage of the injected dose per gram of organ (% ID/g).

Data set [4] addresses T1, VCAM-1 (Homo sapiens, UniProt P19320).
T1 sequence (P19320 25-739): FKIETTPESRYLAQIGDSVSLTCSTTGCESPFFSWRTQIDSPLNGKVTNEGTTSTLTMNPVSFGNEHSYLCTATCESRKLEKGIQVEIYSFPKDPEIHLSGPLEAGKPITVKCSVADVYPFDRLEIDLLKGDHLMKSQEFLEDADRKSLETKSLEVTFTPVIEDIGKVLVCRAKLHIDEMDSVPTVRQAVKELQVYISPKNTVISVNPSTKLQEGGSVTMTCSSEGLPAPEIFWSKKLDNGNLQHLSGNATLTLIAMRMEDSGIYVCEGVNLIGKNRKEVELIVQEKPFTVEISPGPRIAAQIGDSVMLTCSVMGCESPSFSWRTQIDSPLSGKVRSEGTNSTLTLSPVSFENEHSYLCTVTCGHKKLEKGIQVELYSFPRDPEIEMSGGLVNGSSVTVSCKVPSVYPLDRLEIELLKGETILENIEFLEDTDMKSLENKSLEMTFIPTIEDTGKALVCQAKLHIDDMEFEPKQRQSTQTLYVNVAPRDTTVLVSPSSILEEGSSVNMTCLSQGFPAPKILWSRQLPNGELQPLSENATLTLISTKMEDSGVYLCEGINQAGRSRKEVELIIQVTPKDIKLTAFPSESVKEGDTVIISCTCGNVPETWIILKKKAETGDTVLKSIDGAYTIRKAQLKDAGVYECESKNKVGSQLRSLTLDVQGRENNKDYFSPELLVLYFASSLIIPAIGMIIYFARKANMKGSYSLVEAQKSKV
The following applies: as shown by Ling et al. (2000); cited from earlier work.

`CC[C@H](C)[C@H](NC(=O)[C@H](C)NC(=O)[C@H](CC(C)C)NC(=O)[C@H](CCCNC(=N)N)NC(=O)[C@@H](N)Cc1ccc(O)c(I)c1)C(=O)N[C@@H](CCCNC(=N)N)C(=O)N[C@@H](CC(C)C)C(=O)N[C@@H](CC(N)=O)C(=O)N[C@@H](CCC(=O)O)C(=O)N[C@@H](CCCNC(=N)N)C(=O)O` [^123I-B2702.84-75] (H-[Tyr(3-I)]RLAIRLNER-OH; N-terminus and C-terminus assumed): in data set [1], the “binding on atheromatous plaques of WHHL animals relative to aortas of control animals” value was 17.0 times. The “binding ratio atheromatous plaque / normal aortic zone” value in data set [1] (WHHL animals) is listed as 4.0. Further, in data set [2], the “circulatory activity, of the initial activity” value came to 30%. For the same molecule, the tissue uptake at 3 h came out at 0.011 ± 0.004 %ID/g in data set [3] (aorta, Control rabbits (n = 3), read-out: Biodistribution, Aorta); 0.034 ± 0.012 %ID/g in data set [3] (aorta, WHHL rabbits (n = 3), read-out: Biodistribution, Aorta); 0.19 ± 0.038 %ID/g in data set [3] (blood, Control rabbits (n = 3), read-out: Biodistribution, Blood); 0.161 ± 0.048 %ID/g in data set [3] (blood, WHHL rabbits (n = 3), read-out: Biodistribution, Blood); 0.011 ± 0.001 %ID/g in data set [3] (fat, Control rabbits (n = 3), read-out: Biodistribution, Fat); 0.015 ± 0.006 %ID/g in data set [3] (fat, WHHL rabbits (n = 3), read-out: Biodistribution, Fat). Besides, the tissue uptake at 3 h came out at 0.088 ± 0.017 %ID/g in data set [3] (heart, Control rabbits (n = 3), read-out: Biodistribution, Heart); 0.088 ± 0.031 %ID/g in data set [3] (heart, WHHL rabbits (n = 3), read-out: Biodistribution, Heart); 0.307 ± 0.052 %ID/g in data set [3] (kidney, Control rabbits (n = 3), read-out: Biodistribution, Kidney); 0.49 ± 0.184 %ID/g in data set [3] (kidney, WHHL rabbits (n = 3), read-out: Biodistribution, Kidney); 0.086 ± 0.025 %ID/g in data set [3] (liver, Control rabbits (n = 3), read-out: Biodistribution, Liver); 0.096 ± 0.029 %ID/g in data set [3] (liver, WHHL rabbits (n = 3), read-out: Biodistribution, Liver). Also, the tissue uptake at 3 h stood at 0.138 ± 0.028 %ID/g in data set [3] (lung, Control rabbits (n = 3), read-out: Biodistribution, Lung); 0.163 ± 0.044 %ID/g in data set [3] (lung, WHHL rabbits (n = 3), read-out: Biodistribution, Lung); 0.028 ± 0.003 %ID/g in data set [3] (muscle, Control rabbits (n = 3), read-out: Biodistribution, Muscle); 0.026 ± 0.009 %ID/g in data set [3] (muscle, WHHL rabbits (n = 3), read-out: Biodistribution, Muscle); 0.076 ± 0.015 %ID/g in data set [3] (spleen, Control rabbits (n = 3), read-out: Biodistribution, Spleen); 0.089 ± 0.029 %ID/g in data set [3] (spleen, WHHL rabbits (n = 3), read-out: Biodistribution, Spleen). Besides, the tissue uptake at 3 h in data set [3] (stomach, Control rabbits (n = 3), read-out: Biodistribution, Stomach) was 0.095 ± 0.025 %ID/g; in data set [3] (stomach, WHHL rabbits (n = 3), read-out: Biodistribution, Stomach) it was 0.114 ± 0.04 %ID/g.

Take “B2702.84-75/75-84: peptide of sequence YRLAIRLNERRENLRIALRY (SEQ ID no 2), inverse dimer of residues 84-75/75-84 of HLA-B2702 (listed as Homo sapiens)”: the “binding to VCAM-1” value in data set [4] is on record as “bind specifically to VCAM-1”.
